According to ChEMBL document CHEMBL5260813, “An overview on the recent developments of 1,2,4-triazine derivatives as anticancer compounds” (Eur J Med Chem, 2017):

How the values were obtained:
KB = assay: Antiproliferative activity against human KB cells assessed as inhibition of cell growth under hypoxia condition; type: functional, cell-based
[1] = Ratio of IC50 for antiproliferative activity against human MCF7 cells assessed as inhibition of cell growth under normoxia condition to IC50 for antiproliferative activity against human MCF7 cells assessed as inhibition of cell growth under hypoxia condition; type: functional
[2] = Ratio of IC50 for antiproliferative activity against human PC-3 cells assessed as inhibition of cell growth under normoxia condition to IC50 for antiproliferative activity against human PC-3 cells assessed as inhibition of cell growth under hypoxia condition; type: functional
[3] = Ratio of IC50 for antiproliferative activity against human Bel-7402 cells assessed as inhibition of cell growth under normoxia condition to IC50 for antiproliferative activity against human Bel-7402 cells assessed as inhibition of cell growth under hypoxia condition; type: functional
[4] = Ratio of IC50 for antiproliferative activity against human Eca-109 cells assessed as inhibition of cell growth under normoxia condition to IC50 for antiproliferative activity against human Eca-109 cells assessed as inhibition of cell growth under hypoxia condition; type: functional
[5] = Ratio of IC50 for antiproliferative activity against human HL-60 cells assessed as inhibition of cell growth under normoxia condition to IC50 for antiproliferative activity against human HL-60 cells assessed as inhibition of cell growth under hypoxia condition; type: functional
MCF7 = assay: Antiproliferative activity against human MCF7 cells assessed as inhibition of cell growth under hypoxic condition by MTT assay; type: functional, cell-based
HCT-116 = assay: Antiproliferative activity against human HCT-116 cells assessed as inhibition of cell growth under hypoxic condition by MTT assay; type: functional, cell-based
NCI-H460 = assay: Antiproliferative activity against human NCI-H460 cells assessed as inhibition of cell growth under hypoxic condition by MTT assay; type: functional, cell-based

Row | Structure (SMILES) | Ratio IC50 [1] | Ratio IC50 [2] | Ratio IC50 [3] | Ratio IC50 [4] | Ratio IC50 [5] | IC50 (MCF7) [µM] | IC50 (HCT-116) [µM] | IC50 (NCI-H460) [µM] | other results
1 | CCCOCNc1n[n+]([O-])c2ccccc2[n+]1[O-] | – | – | – | – | – | – | – | – | IC50 (KB): 3.74 µM
2 | CCCCOCNc1n[n+]([O-])c2ccccc2[n+]1[O-] | – | – | – | – | – | – | – | – | IC50 (KB): 2.32 µM
3 | CCCCCOCNc1n[n+]([O-])c2ccccc2[n+]1[O-] | – | – | – | – | – | – | – | – | IC50 (KB): 2.9 µM
4 | CC(C)CCOCNc1n[n+]([O-])c2ccccc2[n+]1[O-] | – | – | – | – | – | – | – | – | IC50 (KB): 2.11 µM
5 | [O-][n+]1nc(NCOC2CCCCC2)[n+]([O-])c2ccccc21 | – | – | – | – | – | – | – | – | IC50 (KB): 1.2 µM
6 | CCCCCCCOCNc1n[n+]([O-])c2ccccc2[n+]1[O-] | – | – | – | – | – | – | – | – | IC50 (KB): 3.49 µM
7 | [O-][n+]1nc(NCOCc2ccccc2)[n+]([O-])c2ccccc21 | – | – | – | – | – | – | – | – | IC50 (KB): 4.14 µM
8 | [O-][n+]1nc(NCOCc2ccc(Cl)cc2)[n+]([O-])c2ccccc21 | – | – | – | – | – | – | – | – | IC50 (KB): 2.19 µM
9 | CC(OCNc1n[n+]([O-])c2ccccc2[n+]1[O-])c1ccccc1 (centres undefined) | – | – | – | – | – | – | – | – | IC50 (KB): 2.81 µM
10 | O=[N+]([O-])c1cccc(COCNc2n[n+]([O-])c3ccccc3[n+]2[O-])c1 | – | – | – | – | – | – | – | – | IC50 (KB): 3.44 µM
11 | CCCOCNc1n[n+]([O-])c2cc(OC)ccc2[n+]1[O-] | – | – | – | – | – | – | – | – | IC50 (KB): 2.54 µM
12 | CCCCCOCNc1n[n+]([O-])c2cc(OC)ccc2[n+]1[O-] | – | – | – | – | – | – | – | – | IC50 (KB): 2.51 µM
13 | COc1ccc2c(c1)[n+]([O-])nc(NCOCc1ccccc1)[n+]2[O-] | – | – | – | – | – | – | – | – | IC50 (KB): 4.47 µM
14 | [O-][n+]1nc(NCc2ccccc2)[n+]([O-])c2ccccc21 | 1.9 | 2.3 | 2.8 | 5.1 | 4.2 | – | – | – | –
15 | CCNc1n[n+]([O-])c2ccccc2[n+]1[O-] | 2.1 | 4.4 | 2.2 | 5.4 | 1.6 | – | – | – | –
16 | CCNc1n[n+]([O-])c2cc(Cl)ccc2[n+]1[O-] | 3.84 | – | 2.4 | 2.7 | 5.1 | – | – | – | –
17 | CCNc1n[n+]([O-])c2cc(OC)ccc2[n+]1[O-] | – | 1.2 | 1.07 | 1.12 | – | – | – | – | –
18 | [O-][n+]1nc(Nc2ccccc2)[n+]([O-])c2ccccc21 | 2.1 | 2.3 | 2 | 4.1 | 2.5 | – | – | – | –
19 | [O-][n+]1nc(NC2CCCCC2)[n+]([O-])c2ccccc21 | 1.9 | 1.5 | 1.1 | 2.8 | 4.1 | – | – | – | –
20 | O=C(NCCCCCNc1n[n+]([O-])c2ccccc2[n+]1[O-])C(F)(F)F | – | – | – | – | – | 11.7 | 11.7 | 11.7 | –
21 | O=C(NCCCCNc1n[n+]([O-])c2ccccc2[n+]1[O-])C(F)(F)F | – | – | – | – | – | 11.7 | 11.7 | 11.7 | –
22 | O=[N+]([O-])c1ccc2c(c1)[n+]([O-])nc(NC1CCCCC1)[n+]2[O-] | – | 1.07 | 1.68 | 1.6 | – | – | – | – | –
23 | NCCCCNc1n[n+]([O-])c2ccccc2[n+]1[O-] | – | – | – | – | – | 11.7 | 11.7 | 11.7 | –
24 | O=C(NCCCNc1n[n+]([O-])c2ccccc2[n+]1[O-])C(F)(F)F | – | – | – | – | – | 11.7 | 11.7 | 11.7 | –
25 | [O-][n+]1nc(NCCNc2n[n+]([O-])c3ccccc3[n+]2[O-])nc2ccccc21 | – | – | – | – | – | 11.7 | 11.7 | 11.7 | –

Row | Structure (SMILES) | Ratio IC50 [1] | Ratio IC50 [2] | Ratio IC50 [3] | Ratio IC50 [4] | Ratio IC50 [5] | IC50 (MCF7) [µM] | IC50 (HCT-116) [µM] | IC50 (NCI-H460) [µM] | other results
26 | Cc1ccc2c(c1)[n+]([O-])nc(Nc1ccccc1)[n+]2[O-] | 2.19 | 1.2 | 2.07 | 5.31 | 1.01 | – | – | – | –
27 | O=[N+]([O-])c1ccc2c(c1)[n+]([O-])nc(Nc1ccccc1)[n+]2[O-] | 1.61 | – | 1.44 | 1.47 | – | – | – | – | –
28 | NCCCCCCCNc1n[n+]([O-])c2ccccc2[n+]1[O-] | – | – | – | – | – | 11.7 | 11.7 | 11.7 | –
29 | NCCNc1n[n+]([O-])c2ccccc2[n+]1[O-] | – | – | – | – | – | 11.7 | 11.7 | 11.7 | –
30 | O=C(NCCCCCCCCNc1n[n+]([O-])c2ccccc2[n+]1[O-])C(F)(F)F | – | – | – | – | – | 11.7 | 11.7 | 11.7 | –
31 | NCCCCCNc1n[n+]([O-])c2ccccc2[n+]1[O-] | – | – | – | – | – | 11.7 | 11.7 | 11.7 | –
32 | O=C(NCCCCCCNc1n[n+]([O-])c2ccccc2[n+]1[O-])C(F)(F)F | – | – | – | – | – | 11.7 | 11.7 | 11.7 | –
33 | [O-][n+]1nc(NCCCNc2n[n+]([O-])c3ccccc3[n+]2[O-])nc2ccccc21 | – | – | – | – | – | 11.7 | 11.7 | 11.7 | –
34 | COc1ccc2c(c1)[n+]([O-])nc(NCC1CCCCC1)[n+]2[O-] | 2.4 | 1 | 2 | 1.3 | 2.4 | – | – | – | –
35 | CCNc1n[n+]([O-])c2cc(C)ccc2[n+]1[O-] | 2.7 | 2.1 | 1.74 | 1.4 | 1 | – | – | – | –
36 | CCCCCCNc1n[n+]([O-])c2ccccc2[n+]1[O-] | 1.3 | 1.19 | – | 1.7 | 2.8 | – | – | – | –
37 | NCCCCCCCCNc1n[n+]([O-])c2ccccc2[n+]1[O-] | – | – | – | – | – | 11.7 | 11.7 | 11.7 | –
38 | NCCCNc1n[n+]([O-])c2ccccc2[n+]1[O-] | – | – | – | – | – | 11.7 | 11.7 | 11.7 | –
39 | Cc1ccc2c(c1)[n+]([O-])nc(NCc1ccccc1)[n+]2[O-] | 3.79 | 2.4 | 2.54 | 8.77 | 1.21 | – | – | – | –
40 | COc1ccc2c(c1)[n+]([O-])nc(NC1CCCCC1)[n+]2[O-] | 2.8 | – | 1.6 | 2 | 2.2 | – | – | – | –
41 | CCCCCCNc1n[n+]([O-])c2cc(C)ccc2[n+]1[O-] | 1.3 | 1.3 | – | 4.7 | 2.9 | – | – | – | –
42 | CCCCCCNc1n[n+]([O-])c2cc(Cl)ccc2[n+]1[O-] | 2.1 | 1.4 | 1.6 | 2.6 | 4 | – | – | – | –
43 | O=[N+]([O-])c1ccc2c(c1)[n+]([O-])nc(NCc1ccccc1)[n+]2[O-] | 1.2 | 1.89 | 1.17 | 1.45 | 1.09 | – | – | – | –
44 | NCCCCCCNc1n[n+]([O-])c2ccccc2[n+]1[O-] | – | – | – | – | – | 11.7 | 11.7 | 11.7 | –
45 | O=C(NCCCCCCCNc1n[n+]([O-])c2ccccc2[n+]1[O-])C(F)(F)F | – | – | – | – | – | 11.7 | 11.7 | 11.7 | –
46 | Cc1ccc2c(c1)[n+]([O-])nc(NC1CCCCC1)[n+]2[O-] | 2 | 1.2 | 1.1 | 2.5 | 7.9 | – | – | – | –
47 | CCCCCCNc1n[n+]([O-])c2cc([N+](=O)[O-])ccc2[n+]1[O-] | – | 1.6 | 1.5 | 1.5 | – | – | – | – | –
48 | O=C(NCCNc1n[n+]([O-])c2ccccc2[n+]1[O-])C(F)(F)F | – | – | – | – | – | 11.7 | 11.7 | 11.7 | –
49 | Nc1n[n+]([O-])c2ccccc2[n+]1[O-] [TIRAPAZAMINE] | 1.7 | 3.8 | 1.8 | 6.6 | 1.1 | – | – | – | –
